From patent publication US20250177405A1, “METHODS OF TREATING NEUROLOGICAL AND CARDIOVASCULAR CONDITIONS” (ASTROCYTE PHARMACEUTICALS, INC., priority 2021, published 2025)
Read-outs that look alike come from different tables or passages of the source.

Legend:
[1] = I-1 plasma and CSF concentrations during bolus/infusion regimen in tMCAO efficacy study; type: in vivo, Macaca fascicularis; details: for predicted I-1 [Plasma]: 22 h infusion; for Measured I-1 [CSF] / measured I-1 [Plasma]: 22 h, n = 4
Procedure: Macaques received a bolus dose of vehicle (40% PEG400 in 0.9% saline) or I-1 into a saphenous vein 2 h after occlusion (2 h prior to restoration of MCA blood flow), followed immediately by a 22 h intravenous infusion. This dosing regimen was designed to rapidly achieve and maintain pre-determined plasma and cerebrospinal fluid (CSF) steady-state concentrations of I-1 based on its pharmacokinetics previously determined in näive and MCA occluded macaques (Tables A-C below).
During MRI, vehicle or I-1 were infused into the saphenous vein via a syringe pump (TOP5500E, TOP Corp., Tokyo, Japan). Infusion following MRI was maintained via a portable, programmable IPRECIO® Dual infusion pump (DMP-100; Primetech Corp., Tokyo, Japan) ported into a jugular venous line, both being secured in a jacket. Methods for pharmacokinetic sampling and bioanalytical analysis of plasma and CSF are described below.
Blood samples (1.0 mL) were withdrawn into heparinized tubes from either the opposite cephalic or the femoral vein at 3, 6, 24, 48, 72 hours and 5 days post-occlusion. Heparinized blood was centrifuged at 4° C. at 1,800×g for 10 min. In the same animals, 0.3-0.5 mL of cerebrospinal fluid (CSF) was withdrawn at 6 and 24 hours post-occlusion. Macaques were sedated with ketamine (10 mg/kg, i.m.), CSF was collected via puncture of the cisterna magna. Plasma and CSF samples were flash frozen in liquid nitrogen and then stored at −70 C until shipment for processing. Samples were shipped on dry ice. Plasma and CSF concentrations of I-1 were determined by LC/MS/MS utilizing standard curves (performed at the Department of Bio Research, Kamakura Techno-Science, Inc. Kanagawa, Japan). Lower limits of quantitation for compound I-1 were 1.0 ng/mL and 0.1 ng/mL for plasma and CSF, respectively.

A3 receptor in the mouse = target: T1, A3 receptor in the mouse (Mus musculus, UniProt Q61618); experiment: affinity at mouse A3 receptor; type: binding
T1 sequence (Q61618 1-319): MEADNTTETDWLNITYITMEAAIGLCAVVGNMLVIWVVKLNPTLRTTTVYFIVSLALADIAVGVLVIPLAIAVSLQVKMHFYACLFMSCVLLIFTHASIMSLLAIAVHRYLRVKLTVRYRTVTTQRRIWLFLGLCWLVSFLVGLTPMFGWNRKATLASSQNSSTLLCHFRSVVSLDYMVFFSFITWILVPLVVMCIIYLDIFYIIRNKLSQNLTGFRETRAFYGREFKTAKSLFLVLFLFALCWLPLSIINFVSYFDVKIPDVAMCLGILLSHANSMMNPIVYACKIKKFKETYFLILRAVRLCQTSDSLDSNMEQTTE
Procedure: Similar competition binding assays may be conducted using HEK293 cell membranes expressing mARs using [^125I]I-AB-MECA to label A1 or A3ARs and [^3H]CGS21680 to label A2AARs. IC50 values were converted to Ki values using known methods. Nonspecific binding was determined in the presence of 100 μM NECA.

brain A1R/A3R = experiment: estimated brain receptor occupancy of I-1 in nonhuman primate stroke study; type: in vivo
Procedure: Cerebrospinal fluid drug concentration is an established proxy for unbound drug brain concentration that interacts with central receptor targets (references 46, 47). The unbound brain concentrations and resulting brain receptor occupancy at the A1R and A3R can be estimated using receptor affinity data and simple mass action equations (references 48, 49). […] Accordingly, during the 22 h infusion of I-1, sufficient CSF concentrations were available to provide coverage of central A1R and A3R in the macaque.
Receptor occupancy is a mass action relationship:
The percentage of a receptor occupied by an agonist or antagonist is a function of the drug concentration and the drug affinity for the receptor target. The challenge is that drug concentrations at the target site (in this case, brain, and CSF) can vary by species, as can affinity for the drug target. Affinity of I-1 for its receptor target can vary by as much as 5-fold between species. Accordingly, for each species, it is necessary to determine the I-1 affinity for its target as well as the concentration of I-1 at each administered dose in a relevant matrix.
We then proceeded to our key preclinical stroke efficacy model in nonhuman primates. Pre-efficacy pharmacokinetic studies obtained plasma and CSF pharmacokinetic data. […]

[2] = physiological parameter assessment during tMCAO study; type: in vivo, Macaca fascicularis
Procedure: Body weight, core body temperature, mean arterial blood pressure (MABP), heart rate, pO2, pCO2, sO2 and blood pH were assessed prior to and after tMCAO at designated intervals in relation to reported normal physiological ranges for each parameter (references 22-23).

[3] = pharmacokinetics of I-1 after intravenous bolus in normal and tMCAO nonhuman primates; type: in vivo, nonhuman primate; details: for C0 / clearance / half-life / Vd: monkey, plasma, iv, 0.5 mg/kg, intravenous bolus 0.5 mg/kg; for Vd: read-out: Vdss
[4] = system: cynomolgus monkey model of transient middle cerebral artery occlusion (tMCAO); experiment: Neurologic Deficit Score (NDS) after tMCAO; type: in vivo, Macaca fascicularis; details: study Days 1 to 5, I-1-treated composite versus vehicle, p=0.11
Text: Twenty-four hours and 5 days after occlusion, neurologic deficits were scored using the Neurologic Deficits Score (NDS) as described elsewhere (reference 25). The NDS was considered as a secondary efficacy endpoint.

[5] = High dose group, 5.2 mg/kg, 2.8 mg/kg/h, mean ± SEM
[6] = Low dose group, 0.47 mg/kg, 0.25 mg/kg/h, mean ± SEM
[7] = Mid dose group, 1.7 mg/kg, 0.9 mg/kg/h, mean ± SEM

With `CSc1nc(N)c2ncn([C@H]3C(O)C(O)[C@]4(CO)C[C@H]34)c2n1` (stereo in doubt) [Compound I-1] the “plasma I-1 after end of infusion” value ([1]; 24 h following termination of Mid and High dose infusions) was “Measurable concentrations”, the “predicted I-1 [Plasma]” value ([1]; High dose group, 5.2 mg/kg bolus, 2.8 mg/kg/h) was 1660 ng/mL and the “Measured I-1 [CSF]” value [1, 5] was 108 ± 35 ng/mL. The “measured I-1 [Plasma]” value [1, 5] was 1127 ± 246 ng/mL, the “predicted I-1 [Plasma]” value ([1]; Low dose group, 0.47 mg/kg bolus, 0.25 mg/kg/h) was 150 ng/mL and the “Measured I-1 [CSF]” value [1, 6] was 8.8 ± 2.6 ng/mL. For the same molecule, the “measured I-1 [Plasma]” value [1, 6] was 186 ± 24 ng/mL, the “predicted I-1 [Plasma]” value ([1]; Mid dose group, 1.7 mg/kg bolus, 0.9 mg/kg/h) was 540 ng/mL and the “Measured I-1 [CSF]” value [1, 7] was 16.8 ± 5.7 ng/mL. For the same molecule, the “measured I-1 [Plasma]” value [1, 7] was 483 ± 23 ng/mL, the “predicted I-1 [Plasma]” value ([1]; Very Low dose group, 0.11 mg/kg bolus, 0.06 mg/kg/h) was 35 ng/mL and the “measured I-1 [Plasma]” value ([1]; Very Low dose group, 0.11 mg/kg, 0.06 mg/kg/h, mean ± SEM of average over 22-hour infusion) was 32 ± 11 ng/mL. The “Measured I-1 [CSF]” value ([1]; Very Low dose group, 0.11 mg/kg, 0.06 mg/kg/h, mean ± SEM) was 2.1 ± 0.4 ng/mL, the “average plasma and CSF concentrations relative to targets” value ([1]; combined bolus/infusion regimen, all dose levels) was no more than 2 fold and the plasma/CSF ratio ([1]; correlation of I-1 plasma and CSF concentrations, FIG. 5C) was “approximately 10”. The “difference in affinity between I-1 and Cl-IB-MECA” value (A3 receptor in the mouse) was “approximately 25,000 fold”, the “estimated receptor occupancy associated with significant efficacy” value (brain A1R/A3R; NHP stroke study, Low, Mid, High Doses) was 1-15% and the “estimated receptor occupancy at which efficacy started” value (brain A1R/A3R; monkey) was roughly 34%. The “physiological parameters versus vehicle-treated group” value ([2]; baseline and during the study period) was “no clinically relevant differences”, the “MABP or heart rate” value ([2]; systemic I-1 administration, tMCAO macaques) was “did not result in significant alterations” and the “I-1 plasma concentrations after single intravenous bolus” value ([3]; 8 h post-dose) was “below bioanalytical limits of quantitation”. The C0 ([3]; Normal NHP (n = 3)) was 329 ng/mL, the clearance ([3]; Normal NHP (n = 3)) was 29 mL/min/kg and the half-life ([3]; Normal NHP (n = 3)) was 78 min. For the same molecule, the Vd ([3]; Normal NHP (n = 3)) was 3.1 L/kg, the C0 ([3]; tMCAO NHP (n = 1)) was 544 ng/mL and the clearance ([3]; tMCAO NHP (n = 1)) was 28 mL/min/kg. For the same molecule, the half-life ([3]; tMCAO NHP (n = 1)) was 90 min, the Vd ([3]; tMCAO NHP (n = 1)) was 3 L/kg and the “neurological function (NDS) change” value [4] was “improved but statistically non-significant”.
